Source: patent US20240158418A1 (C4 Therapeutics, Inc., priority 2021, published 2024)
pIC50: −log10 of the molar value. Where two headings read alike, the source gives them in different places.

Assays:
Assay type in all cases: cell-based
[1] = target: T1, EGFR L858R-T790M (Homo sapiens, UniProt P00533, L858R/T790M); test: EGFR degradation, Total EGFR (L858R-specific) HTRF, NCI-H1975; conditions: 6 hours
T1 construct: NCI-H1975 (harboring EGFR heterozygous L858R-T790M mutations); host or cells: NCI-H1975
T1 sequence (P00533 25-1210 T790M/L858R): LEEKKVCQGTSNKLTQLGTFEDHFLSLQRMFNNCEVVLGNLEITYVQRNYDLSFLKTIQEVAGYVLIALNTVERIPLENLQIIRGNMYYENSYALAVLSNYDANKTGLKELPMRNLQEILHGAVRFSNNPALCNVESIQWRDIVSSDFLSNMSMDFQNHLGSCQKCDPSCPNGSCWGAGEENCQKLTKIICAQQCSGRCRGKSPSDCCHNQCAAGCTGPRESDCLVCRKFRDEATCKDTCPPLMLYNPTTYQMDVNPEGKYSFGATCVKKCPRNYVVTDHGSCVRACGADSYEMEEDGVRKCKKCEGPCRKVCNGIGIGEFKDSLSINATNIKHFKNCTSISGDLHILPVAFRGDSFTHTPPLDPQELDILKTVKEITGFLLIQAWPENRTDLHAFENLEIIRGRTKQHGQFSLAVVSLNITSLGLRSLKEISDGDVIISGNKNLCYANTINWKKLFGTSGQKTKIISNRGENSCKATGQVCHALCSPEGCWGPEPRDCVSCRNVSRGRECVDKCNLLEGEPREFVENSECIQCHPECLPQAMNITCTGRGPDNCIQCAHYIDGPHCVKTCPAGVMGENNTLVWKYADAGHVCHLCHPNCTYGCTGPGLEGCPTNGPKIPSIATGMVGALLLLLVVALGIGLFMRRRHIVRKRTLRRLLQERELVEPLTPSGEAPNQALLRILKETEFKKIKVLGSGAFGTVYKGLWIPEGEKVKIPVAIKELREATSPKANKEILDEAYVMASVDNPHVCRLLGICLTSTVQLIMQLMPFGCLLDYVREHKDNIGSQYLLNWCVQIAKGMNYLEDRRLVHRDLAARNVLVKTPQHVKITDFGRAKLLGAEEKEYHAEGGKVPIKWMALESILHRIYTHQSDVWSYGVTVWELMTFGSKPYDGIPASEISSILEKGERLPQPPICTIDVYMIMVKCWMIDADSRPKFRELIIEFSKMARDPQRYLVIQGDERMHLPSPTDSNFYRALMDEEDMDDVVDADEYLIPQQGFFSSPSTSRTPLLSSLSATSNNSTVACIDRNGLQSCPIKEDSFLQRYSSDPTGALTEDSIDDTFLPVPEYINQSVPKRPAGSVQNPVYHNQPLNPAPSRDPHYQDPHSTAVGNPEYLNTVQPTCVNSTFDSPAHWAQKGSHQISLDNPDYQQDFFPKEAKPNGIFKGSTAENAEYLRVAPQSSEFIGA
In short: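 HTRF read-outs: pY1068 phospho-EGFR for IC50; total EGFR (pan-EGFR in A431, L858R-specific in mutant lines) for DC50. Compounds were titrated 11 points, half-log, from 10 μM in duplicate onto cells in 10% FBS RPMI, incubated 6 h at 37°C.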

[2] = target: T2, pY1068 EGFR L858R-T790M (Homo sapiens, UniProt P00533, L858R/T790M); test: Phospho-EGFR (pY1068) inhibition HTRF, NCI-H1975; conditions: 6 hours, read-out: pEGFR IC50
T2 construct: NCI-H1975 (harboring EGFR heterozygous L858R-T790M mutations); host or cells: NCI-H1975
T2 sequence (P00533 25-1210 T790M/L858R): as above
In short: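 Compound is titrated from 10 μM (11 points, half-log, duplicates), and cells in assay medium (RPMI 1640 no-phenol red, 10% FBS) are added and kept 6 h at 37 °C, 5% CO2. HTRF antibodies then detect pY1068 EGFR for IC50, or total EGFR via pan-EGFR antibody in A431 for DC50.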

[3] = tested on: BaF3 cells expressing EGFR L858R; test: Ba/F3 EGFR cell viability (CellTiter-Glo), L858R; conditions: Mus musculus, read-out: CTGlo (GI50)
Excerpt: RPMI 1640 media, cell culture flasks, and 384-well microplates were purchased from VWR (Radnor, PA, USA). Fetal bovine serum (FBS) was purchased from Life Technologies (Carlsbad, CA, USA) and CellTiter-Glo® was purchased from Promega (Madison, WI, USA). The Ba/F3 parental cell line was purchased from CrownBio (Santa Clara, CA). BaF3 cell lines ectopically expressing the EGFR mutations L858R, L858R-T790M, L858R-C797S, and L858R-T790M-C797S were purchased from CrownBio and EGFR mutations L858R-L718Q, L858R-T790M-L718Q, L858R-L792H, and L858R-T790M-L792H, were purchased from Signosis (Santa Clara, CA).
Cell viability was assessed based on the quantification of ATP using the CellTiter-Glo® assay (Promega, Madison, WI, USA). To determine the effect of compounds on cell viability, all Ba/F3 cell lines were plated at a cell density of 2000 cells/well in 384-well plates using RPMI 1640+10% FBS and treated with compounds of interest using a 10-point half-log dilution series in duplicate for 72 hours, with the highest dose set at […]. CellTiter-Glo® reagent was then added and luminescence signals were measured using an EnVision™ Multimode plate reader (Perkin Elmer, Santa Clara, CA). For data normalization, cells untreated with the test compounds at Time=72 hours were set to 100% (equivalent to maximal cell growth after 72 hours); cells untreated with the test compounds at Time=0 hours were set to 0% (equivalent to cytostasis); and media-only wells were set to −100% (equivalent to complete cytotoxicity). % Viability was determined by normalizing the signal with positive and DMSO treated negative controls on the same microtiter plate. The half-maximal inhibition of cell growth (GI50) is computed from where the fitted curve crosses 50% while the half-maximal lethal dose (LD50) is computed from where the fitted curve crosses −50%.

[4] = H1975 (L858R-T790M), read-out: tEGFR DC50
[5] = Table 9A, NCI-H1975 cells, Total EGFR HTRF, read-out: H1975 EGFR DC50

SMILES	DC50 [1, 4] [nM]	DC50 [1, 5] [nM]	pIC50 [2]	GI50 [3] [nM]
O=C1CC[C@H](Nc2ccc(N3CCC(O)(CC(=O)N4CC5(C4)CN(c4ccc(-c6cc(F)c7c(c6)C(=O)N(C(C(=O)Nc6nccs6)c6ncn8c6CCC8)C7)cc4)C5)CC3)c(F)c2)C(=O)N1 (stereo partly drawn) [Compound 1, 2-(6,7-dihydro-5H-pyrrolo[1,2-c]imidazol-1-yl)-2-[6-[4-[2-[2-[1-[4-[[(3S)-2,6-dioxo-3-piperidyl]amino]-2-fluoro-phenyl]-4-hydroxy-4-piperidyl]acetyl]-2,6-diazaspiro[3.3]heptan-6-yl]phenyl]-4-fluoro-1-oxo-isoindolin-2-yl]-N-thiazol-2-yl-acetamide]	8	< 50	8.05	12
Cn1nc(N2CCC(=O)NC2=O)c2ccc([C@H]3CCN(CC(=O)N4CC5(C4)CN(c4ccc(-c6cc(F)c7c(c6)C(=O)N(C(C(=O)Nc6nccs6)c6ncn8c6CCC8)C7)cc4)C5)CC3(F)F)cc21 (stereo partly drawn) [Compound 2, 2-(6,7-dihydro-5H-pyrrolo[1,2-c]imidazol-1-yl)-2-[6-[4-[2-[2-[(4R)-4-[3-(2,4-dioxohexahydropyrimidin-1-yl)-1-methyl-indazol-6-yl]-3,3-difluoro-1-piperidyl]acetyl]-2,6-diazaspiro[3.3]heptan-6-yl]phenyl]-4-fluoro-1-oxo-isoindolin-2-yl]-N-thiazol-2-yl-acetamide]	12	< 50	7.85	3
